Results from patent US20110130426A1, “Novel Sulphonamide Derivatives as Glucocorticoid Receptor Modulators for the Treatment of Inflammatory Diseases” (ASTRAZENECA AB, priority 2004, published 2011).

Molecular target: T1, recombinant human GR (Homo sapiens, UniProt P04150)
T1 construct: purchased Panvera/Invitrogen P2812 (kit P2893)
T1 sequence (P04150 1-777): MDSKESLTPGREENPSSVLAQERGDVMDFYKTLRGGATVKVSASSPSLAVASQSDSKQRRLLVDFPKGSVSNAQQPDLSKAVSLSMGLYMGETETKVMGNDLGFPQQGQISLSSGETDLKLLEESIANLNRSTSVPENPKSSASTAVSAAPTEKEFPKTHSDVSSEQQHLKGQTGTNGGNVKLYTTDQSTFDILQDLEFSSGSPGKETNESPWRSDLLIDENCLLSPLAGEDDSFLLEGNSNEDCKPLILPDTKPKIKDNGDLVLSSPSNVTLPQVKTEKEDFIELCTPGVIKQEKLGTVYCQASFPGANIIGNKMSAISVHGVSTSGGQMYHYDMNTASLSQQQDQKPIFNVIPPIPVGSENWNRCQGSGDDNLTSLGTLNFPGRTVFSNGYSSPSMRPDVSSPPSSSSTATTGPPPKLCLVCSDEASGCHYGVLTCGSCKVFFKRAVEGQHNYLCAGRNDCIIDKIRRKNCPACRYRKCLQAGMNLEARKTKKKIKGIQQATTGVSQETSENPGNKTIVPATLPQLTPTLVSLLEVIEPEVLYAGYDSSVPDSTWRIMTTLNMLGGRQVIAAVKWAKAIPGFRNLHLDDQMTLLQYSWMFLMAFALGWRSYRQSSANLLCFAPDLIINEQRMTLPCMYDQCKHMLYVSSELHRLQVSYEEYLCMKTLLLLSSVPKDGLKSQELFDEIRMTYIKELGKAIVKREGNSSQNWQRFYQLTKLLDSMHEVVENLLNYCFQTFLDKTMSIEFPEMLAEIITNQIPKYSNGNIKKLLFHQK
Assay: Human Glucocorticoid Receptor (GR) Assay, fluorescence polarization
Type: binding
Settings: GS Red tracer, 2 hours at room temperature
Description: Human Glucocorticoid Receptor (GR) Assay
The assay is based on a commercial kit from Panvera/Invitrogen (Part number P2893). The assay technology is fluorescence polarization. The kit utilises recombinant human GR (Panvera, Part number P2812), a Fluoromone™ labelled tracer (GS Red, Panvera, Part number P2894) and a Stabilizing Peptide 10X (Panvera, Part number P2815). The GR and Stabilizing Peptide reagents are stored at −70° C. while the GS Red is stored at −20° C. Also included in the kit are 1M DTT (Panvera, Part number P2325, stored at −20° C.) and GR Screening buffer 10X (Panvera, Part number P2814, stored at −70° C. initially but once thawed stored at room temperature). Avoid repeated freeze/thaws for all reagents. The GR Screening buffer 10X comprises 100 mM potassium phosphate, 200 mM sodium molybdate, 1 mM EDTA and 20% DMSO.
Test compounds (1 μL) and controls (1 μL) in 100% DMSO were added to black polystyrene 384-well plates (Greiner low volume black flat-bottom, part number 784076). 0% control was 100% DMSO and 100% control was 10 μM Dexamethasone. Background solution ([…]; assay buffer 10X, Stabilizing Peptide, DTT and ice cold MQ water) was added to the background wells. GS Red solution (7 μL; assay buffer 10X, Stabilizing Peptide, DTT, GS Red and ice cold water) was added to all wells except background wells. GR solution (7 μL; assay buffer 10X, Stabilizing Peptide, DTT, GR and ice cold water) was added to all wells. The plate was sealed and incubated in a dark at room temperature for 2 hours. The plate was read in an Analyst plate reader (LJL Biosystems/Molecular Devices Corporation) or other similar plate reader capable of recording fluorescence polarization (excitation wavelength 530 nm, emission wavelength […] and a dichroic mirror at 561 nm). The IC50 values were calculated using XLfit model 205.

Row | IC50 [nM] | Compound
1 | 350 | Cc1ccc(C)c(S(=O)(=O)Nc2cccc(CCc3ccccn3)c2)c1 [Compound 49]
2 | 14 | COc1cc(C)c(S(=O)(=O)NCc2c(-c3ccccc3)noc2C)c(C)c1C [Example 1, 4-Methoxy-2,3,6-trimethyl-N-(5-methyl-3-phenyl-isoxazol-4-ylmethyl)-benzenesulfonamide]
3 | 35 | Cc1onc(-c2ccccc2)c1CNS(=O)(=O)c1ccc(-c2ccc(F)cc2)cc1 [Example 2, 4′-Fluoro-biphenyl-4-sulfonic acid (5-methyl-3-phenyl-isoxazol-4-ylmethyl)-amide]
4 | 370 | Cc1onc(-c2ccccc2)c1CNS(=O)(=O)c1ccc(-c2ccccc2)cc1 [Example 5, Biphenyl-4-sulfonic acid (5-methyl-3-phenyl-isoxazol-4-ylmethyl)-amide]
5 | 36 | Cc1cc(C)c(S(=O)(=O)NCc2ccc(-c3ccc(Cl)cc3)s2)c(C)c1 [Example 19, N-{[5-(4-Chlorophenyl)-2-thienyl]methyl}-2,4,6-trimethylbenzenesulfonamide]
6 | 62 | O=S(=O)(NCc1ccc(-c2ccc(Cl)cc2)s1)c1ccc(F)cc1 [Example 21, N-{[5-(4-Chlorophenyl)-2-thienyl]methyl}-4-fluorobenzenesulfonamide]
7 | 99 | Cc1c(S(=O)(=O)Nc2cccc(CCc3ccccn3)c2)cnn1-c1ccccc1 [Example 22, 5-Methyl-1-phenyl-N-[3-(2-pyridin-2-ylethyl)phenyl]-1H-pyrazole-4-sulfonamide]
8 | 110 | Cn1nc(-c2ccc(S(=O)(=O)Nc3cccc(CCc4ccccn4)c3)s2)cc1C(F)(F)F [Example 23, 5-[1-Methyl-5-(trifluoromethyl)-1H-pyrazol-3-yl]-N-[3-(2-pyridin-2-ylethyl)phenyl]-thiophene-2-sulfonamide]
9 | 170 | O=S(=O)(NCc1ccc(-c2ccc(Cl)cc2)s1)c1ccccc1Br [Example 24, 2-Bromo-N-{[5-(4-chlorophenyl)-2-thienyl]methyl}benzenesulfonamide]
10 | 200 | COc1ccc(S(=O)(=O)NCc2ccc(-c3ccc(Cl)cc3)s2)cc1 [Example 26, N-{[5-(4-Chlorophenyl)-2-thienyl]methyl}-4-methoxybenzenesulfonamide]
11 | 200 | O=S(=O)(Nc1cccc(CCc2ccccn2)c1)c1ccc(-c2ccccn2)s1 [Example 27, 5-Pyridin-2-yl-N-[3-(2-pyridin-2-ylethyl)phenyl]thiophene-2-sulfonamide]
12 | 220 | Cc1cc(S(=O)(=O)Nc2cccc(CCc3ccccn3)c2)c(C)s1 [Example 28, 2,5-dimethyl-N-[3-(2-pyridin-2-ylethyl)phenyl]thiophene-3-sulfonamide]
13 | 230 | Cc1cc(C)cc(S(=O)(=O)Nc2cccc(CCc3ccccn3)c2)c1 [Example 29, 3,5-Dimethyl-N-[3-(2-pyridin-2-ylethyl)phenyl]benzenesulfonamide]
14 | 310 | COc1cccc(S(=O)(=O)NCc2ccc(-c3ccc(Cl)cc3)s2)c1 [Example 30, N-{[5-(4-Chlorophenyl)-2-thienyl]methyl}-3-methoxybenzenesulfonamide]
15 | 330 | COc1cc(C)c(S(=O)(=O)NCc2ccc(-c3ccc(Cl)cc3)s2)c(C)c1C [Example 31, N-{[5-(4-Chlorophenyl)-2-thienyl]methyl}-4-methoxy-2,3,6-trimethylbenzenesulfonamide]
16 | 650 | O=S(=O)(Nc1cccc(CCc2ccccn2)c1)c1ccc(Cl)s1 [Example 33, 5-Chloro-N-[3-(2-pyridin-2-ylethyl)phenyl]thiophene-2-sulfonamide]
17 | 660 | O=S(=O)(Cc1ccc(Cl)cc1)NCc1ccc(-c2ccc(Cl)cc2)s1 [Example 34, 1-(4-Chlorophenyl)-N-{[5-(4-chlorophenyl)-2-thienyl]methyl}methanesulfonamide]
18 | 710 | Cc1cc(S(=O)(=O)Nc2cccc(CCc3ccccn3)c2)c(C)o1 [Example 35, 2,5-Dimethyl-N-[3-(2-pyridin-2-ylethyl)phenyl]furan-3-sulfonamide]
19 | 810 | Cc1nn(C(F)F)c(C)c1S(=O)(=O)Nc1cccc(CCc2ccccn2)c1 [Example 36, 1-(Difluoromethyl)-3,5-dimethyl-N-[3-(2-pyridin-2-ylethyl)phenyl]-1H-pyrazole-4-sulfonamide]
20 | 820 | N#Cc1cccc(S(=O)(=O)NCc2ccc(-c3ccc(Cl)cc3)s2)c1 [Example 37, N-{[5-(4-Chlorophenyl)-2-thienyl]methyl}-3-cyanobenzenesulfonamide]

Row | Compound | IC50 [nM]
21 | CCCCOc1ccc(S(=O)(=O)NCc2c(-c3ccccc3)noc2C)cc1 [Example 6, 4-n-Butoxy-N-(5-methyl-3-phenyl-isoxazol-4-ylmethyl)-benzenesulfonamide] | 700
22 | O=[N+]([O-])c1ccc(S(=O)(=O)NCc2ccc(-c3ccc(Cl)cc3)s2)cc1 [Example 20, N-{[5-(4-Chlorophenyl)-2-thienyl]methyl}-4-nitrobenzenesulfonamide] | 59
23 | N-{[5-(4-Chlorophenyl)-2-thienyl]methyl}-3-(4-methylphenoxy)benzenesulfonamide [Example 32] | 390
24 | N-{[5-(4-Chlorophenyl)-2-thienyl]methyl}-4-(pyridin-2-yloxy)benzenesulfonamide [Example 25] | 170
